Measurements from patent publication US20230278995A1, “1,3,4-OXADIAZOLE DERIVATIVE COMPOUNDS AS HISTONE DEACETYLASE 6 INHIBITOR, AND THE PHARMACEUTICAL COMPOSITION COMPRISING THE SAME” (CHONG KUN DANG PHARMACEUTICAL CORP., priority 2020, published 2023).

Experiments:
human recombinant HDAC1 = biological target: T1, human recombinant HDAC1 (Homo sapiens, UniProt Q13547); assay: HDAC enzyme activity inhibition assay (HDAC Fluorimetric Drug Discovery Kit), HDAC1; format: biochemical; details: human recombinant HDAC1, Fluor de Lys-SIRT1 substrate, 30° C. 60 minutes
T1 construct: purchased Enzo Life Sciences, Inc. BML-SE456
T1 sequence (Q13547 whole entry): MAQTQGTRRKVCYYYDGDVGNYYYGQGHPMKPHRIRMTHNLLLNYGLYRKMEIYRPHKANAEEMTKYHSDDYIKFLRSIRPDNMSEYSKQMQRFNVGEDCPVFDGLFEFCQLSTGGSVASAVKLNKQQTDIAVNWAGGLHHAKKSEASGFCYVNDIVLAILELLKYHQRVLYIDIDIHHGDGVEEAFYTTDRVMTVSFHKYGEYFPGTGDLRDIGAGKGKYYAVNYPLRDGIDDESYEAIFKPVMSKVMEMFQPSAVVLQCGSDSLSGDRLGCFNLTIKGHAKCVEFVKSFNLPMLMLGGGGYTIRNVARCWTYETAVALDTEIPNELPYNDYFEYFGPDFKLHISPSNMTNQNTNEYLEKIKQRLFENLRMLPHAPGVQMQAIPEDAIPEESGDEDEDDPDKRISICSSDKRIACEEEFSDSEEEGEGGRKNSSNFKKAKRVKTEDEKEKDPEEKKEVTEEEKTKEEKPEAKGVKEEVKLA
How it was run: (§1)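 The preceding reaction ran 60 min at 30 °C with 0.3 μg recombinant human enzyme, HDAC1 or HDAC6 under an identical protocol, and 10 μM Fluor de Lys-SIRT1 substrate, across 5-fold diluted compound.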

human recombinant HDAC6 = biological target: T2, human recombinant HDAC6 (Homo sapiens, UniProt Q9UBN7); assay: HDAC enzyme activity inhibition assay (HDAC Fluorimetric Drug Discovery Kit), HDAC6; format: biochemical; details: for HDAC6 selectivity (fold): HDAC1 vs HDAC6; for IC50: human recombinant HDAC6, same protocol as HDAC1
T2 construct: purchased Calbiochem Inc. 382180
T2 sequence (Q9UBN7 1-1215): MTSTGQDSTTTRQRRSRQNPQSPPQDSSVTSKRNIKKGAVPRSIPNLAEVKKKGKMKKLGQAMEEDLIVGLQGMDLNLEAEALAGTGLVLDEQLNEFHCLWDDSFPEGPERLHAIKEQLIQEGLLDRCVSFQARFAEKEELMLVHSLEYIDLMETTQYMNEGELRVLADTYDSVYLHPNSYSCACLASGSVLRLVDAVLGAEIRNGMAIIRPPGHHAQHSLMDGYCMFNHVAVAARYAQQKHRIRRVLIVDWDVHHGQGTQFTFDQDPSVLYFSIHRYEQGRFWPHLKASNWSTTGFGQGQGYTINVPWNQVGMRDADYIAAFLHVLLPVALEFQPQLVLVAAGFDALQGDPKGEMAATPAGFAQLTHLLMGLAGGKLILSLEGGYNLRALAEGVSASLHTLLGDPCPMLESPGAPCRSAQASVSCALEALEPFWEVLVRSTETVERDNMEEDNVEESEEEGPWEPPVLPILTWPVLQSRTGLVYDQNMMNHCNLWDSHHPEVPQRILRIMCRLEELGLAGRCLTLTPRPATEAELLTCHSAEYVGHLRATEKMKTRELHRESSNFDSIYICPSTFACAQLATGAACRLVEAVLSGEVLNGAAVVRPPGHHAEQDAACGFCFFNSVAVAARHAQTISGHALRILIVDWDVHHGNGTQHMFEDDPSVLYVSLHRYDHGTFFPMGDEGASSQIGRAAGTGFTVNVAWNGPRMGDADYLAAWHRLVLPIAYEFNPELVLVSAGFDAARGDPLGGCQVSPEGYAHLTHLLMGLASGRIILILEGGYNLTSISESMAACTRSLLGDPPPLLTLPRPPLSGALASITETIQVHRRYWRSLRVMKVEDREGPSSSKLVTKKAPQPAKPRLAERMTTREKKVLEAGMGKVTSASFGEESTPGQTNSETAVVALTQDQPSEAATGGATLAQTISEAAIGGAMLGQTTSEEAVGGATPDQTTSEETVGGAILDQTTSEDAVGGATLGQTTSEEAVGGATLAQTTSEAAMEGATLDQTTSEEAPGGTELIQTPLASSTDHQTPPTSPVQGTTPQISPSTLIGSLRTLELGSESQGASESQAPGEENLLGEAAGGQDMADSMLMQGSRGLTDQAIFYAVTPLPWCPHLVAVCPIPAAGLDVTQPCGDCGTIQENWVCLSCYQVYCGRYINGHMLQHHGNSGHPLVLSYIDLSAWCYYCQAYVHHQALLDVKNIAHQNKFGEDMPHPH
How it was run: as §1

| Structure (SMILES) | IC50 (human recombinant HDAC1) [nM] | HDAC6 selectivity (fold) (human recombinant HDAC6) | IC50 (human recombinant HDAC6) [nM] |
| --- | --- | --- | --- |
| O=C(C1CCC1)N1CC(F)(C(=O)N(Cc2ccc(-c3nnc(C(F)F)o3)cn2)c2ccccc2)C1 [Compound 3159, 1-(cyclobutanecarbonyl)-N-((5-(5-(difluoromethyl)-1,3,4-oxadiazol-2-yl)pyridin-2-yl)methyl)-3-fluoro-N-phenylazetidine-3-carboxamide] | > 50000 | 1,650 fold | 30.3 |
| O=C(N(Cc1ccc(-c2nnc(C(F)F)o2)cn1)c1ccccc1)C1(F)CCN(C2CCCC2)CC1 [Compound 2996, 1-cyclopentyl-N-((5-(5-(difluoromethyl)-1,3,4-oxadiazol-2-yl)pyridin-2-yl)methyl)-4-fluoro-N-phenylpiperidine-4-carboxamide] | 24900 | 443 fold | 56.1 |
| CCN1CC(F)(C(=O)N(Cc2ccc(-c3nnc(C(F)F)o3)cn2)c2ccccc2)C1 [Compound 3001, N-((5-(5-(difluoromethyl)-1,3,4-oxadiazol-2-yl)pyridin-2-yl)methyl)-1-ethyl-3-fluoro-N-phenylazetidine-3-carboxamide] | > 50000 | 1,000 fold | 50 |
| CCCN1CC(N2CCC(F)(C(=O)N(Cc3ccc(-c4nnc(C(F)F)o4)cn3)c3cccc(F)c3)CC2)C1 [Compound 3390, N-((5-(5-(difluoromethyl)-1,3,4-oxadiazol-2-yl)pyridin-2-yl)methyl)-4-fluoro-N-(3-fluorophenyl)-1-(1-propylazetidine-3-yl)piperidin-4-carboxamide] | 24200 | 1,015 fold | 23.8 |
| CC(C)N1CCC(F)(C(=O)N(Cc2ccc(-c3nnc(C(F)F)o3)cn2)c2cccc(F)c2)CC1 [Compound 2970, N-((5-(5-(difluoromethyl)-1,3,4-oxadiazol-2-yl)pyridin-2-yl)methyl)-4-fluoro-N-(3-fluorophenyl)-1-isopropylpiperidine-4-carboxamide] | > 50000 | 1,046 fold | 47.8 |
| O=C(C1CCC1)N1CC(F)(C(=O)N(Cc2ccc(-c3nnc(C(F)F)o3)cn2)c2cccc(F)c2)C1 [Compound 3168, 1-(cyclobutanecarbonyl)-N-((5-(5-(difluoromethyl)-1,3,4-oxadiazol-2-yl)pyridin-2-yl)methyl)-3-fluoro-N-(3-fluorophenyl)azetidine-3-carboxamide] | > 50000 | 2,906 fold | 17.2 |
| CC(=O)N1CC(F)(C(=O)N(Cc2ccc(-c3nnc(C(F)F)o3)cn2)c2ccccc2)C1 [Compound 3152, 1-acetyl-N-((5-(5-(difluoromethyl)-1,3,4-oxadiazol-2-yl)pyridin-2-yl)methyl)-3-fluoro-N-phenylazetidine-3-carboxamide] | > 50000 | 1,377 fold | 36.3 |
| CCCCN1CC(N2CC(F)(C(=O)N(Cc3ccc(-c4nnc(C(F)F)o4)cn3)c3cccc(F)c3)C2)C1 [Compound 3222, 1′-butyl-N-((5-(5-(difluoromethyl)-1,3,4-oxadiazol-2-yl)pyridin-2-yl)methyl)-3-fluoro-N-(3-fluorophenyl)-[1,3′-biazetidine]-3-carboxamide] | > 50000 | 1,420 fold | 35.2 |

Next, values leading:

| IC50 (human recombinant HDAC1) [nM] | HDAC6 selectivity (fold) (human recombinant HDAC6) | IC50 (human recombinant HDAC6) [nM] | Structure (SMILES) |
| --- | --- | --- | --- |
| > 50000 | 1,385 fold | 36.1 | O=C(N(Cc1ccc(-c2nnc(C(F)F)o2)cn1)c1cccc(F)c1)C1(F)CN(C2CCC(F)(F)CC2)C1 [Compound 3096, 1-(4,4-difluorocyclohexyl)-N-((5-(5-(difluoromethyl)-1,3,4-oxadiazol-2-yl)pyridin-2-yl)methyl)-3-fluoro-N-(3-fluorophenyl)azetidine-3-carboxamide] |
| 20400 | 771 fold | 26.5 | O=C(N(Cc1ccc(-c2nnc(C(F)F)o2)cn1)c1cccc(F)c1)C1(F)CN(C2CCN(C3CCC3)CC2)C1 [Compound 3405, 1-(1-cyclobutylpiperidin-4-yl)-N-((5-(5-(difluoromethyl)-1,3,4-oxadiazol-2-yl)pyridin-2-yl)methyl)-3-fluoro-N-(3-fluorophenyl)azetidine-3-carboxamide] |
| > 50000 | 1,022 fold | 48.9 | O=C(N(Cc1ccc(-c2nnc(C(F)F)o2)cn1)c1ccccc1)C1(F)CN(C2CCC2)C1 [Compound 2975, 1-cyclobutyl-N-((5-(5-(difluoromethyl)-1,3,4-oxadiazol-2-yl)pyridin-2-yl)methyl)-3-fluoro-N-phenylazetidine-3-carboxamide] |
| > 50000 | 801 fold | 62.4 | O=C(N(Cc1ccc(-c2nnc(C(F)F)o2)cn1)c1ccccc1)C1(F)CN(C2CCCCC2)C1 [Compound 2999, 1-cyclohexyl-N-((5-(5-(difluoromethyl)-1,3,4-oxadiazol-2-yl)pyridin-2-yl)methyl)-3-fluoro-N-phenylazetidine-3-carboxamide] |
| 28500 | 885 fold | 32.2 | CN1CC(N2CCC(F)(C(=O)N(Cc3ccc(-c4nnc(C(F)F)o4)cn3)c3cccc(F)c3)CC2)C1 [Compound 3389, N-((5-(5-(difluoromethyl)-1,3,4-oxadiazol-2-yl)pyridin-2-yl)methyl)-4-fluoro-N-(3-fluorophenyl)-1-(1-methylazetidine-3-yl)piperidine-4-carboxamide] |
| > 50000 | 1,543 fold | 32.4 | CC(C)CN1CC(F)(C(=O)N(Cc2ccc(-c3nnc(C(F)F)o3)cn2)c2cccc(F)c2)C1 [Compound 3093, N-((5-(5-(difluoromethyl)-1,3,4-oxadiazol-2-yl)pyridin-2-yl)methyl)-3-fluoro-N-(3-fluorophenyl)-1-isobutylazetidine-3-carboxamide] |
| 37000 | 1,135 fold | 32.6 | O=C(N(Cc1ccc(-c2nnc(C(F)F)o2)cn1)c1cccc(F)c1)C1(F)CN(C2CCN(C3CCOC3)CC2)C1 (stereo not drawn) [Compound 3408, N-((5-(5-(difluoromethyl)-1,3,4-oxadiazol-2-yl)pyridin-2-yl)methyl)-3-fluoro-N-(3-fluorophenyl)-1-(1-(tetrahydrofuran-3-yl)piperidin-4-yl)azetidine-3-carboxamide] |
| 29100 | 366 fold | 79.5 | CC(=O)N1CC(F)(C(=O)N(Cc2ccc(-c3nnc(C(F)F)o3)cc2F)c2ccccc2)C1 [Compound 3432, 1-acetyl-N-(4-(5-(difluoromethyl)-1,3,4-oxadiazol-2-yl)-2-fluorobenzyl)-3-fluoro-N-phenylazetidine-3-carboxamide] |
| > 50000 | 668 fold | 74.8 | O=C(N(Cc1ccc(-c2nnc(C(F)F)o2)cn1)c1cccc(F)c1)C1(F)CN(C2CCCCC2)C1 [Compound 3053, 1-cyclohexyl-N-((5-(5-(difluoromethyl)-1,3,4-oxadiazol-2-yl)pyridin-2-yl)methyl)-3-fluoro-N-(3-fluorophenyl)azetidine-3-carboxamide] |
| > 30000 | 30 fold | 1000 | O=C(N(Cc1ccc(-c2nnc(C(F)F)o2)cc1F)c1ccccc1)C1(F)CCNCC1 [Compound 2865, N-(4-(5-(difluoromethyl)-1,3,4-oxadiazol-2-yl)-2-fluorobenzyl)-4-fluoro-N-phenylpiperidine-4-carboxamide 2,2,2-trifluoroacetate] |
| 48000 | 2,581 fold | 18.6 | O=C(N(Cc1ccc(-c2nnc(C(F)F)o2)cn1)c1cccc(F)c1)C1(F)CN(C2CCN(C3CCCC3)CC2)C1 [Compound 3407, 1-(1-cyclopentylpiperidin-4-yl)-N-((5-(5-(difluoromethyl)-1,3,4-oxadiazol-2-yl)pyridin-2-yl)methyl)-3-fluoro-N-(3-fluorophenyl)azetidine-3-carboxamide] |
